Data as given in patent US20240002365A1, “PYRIDAZINE AND 1,2,4-TRIAZINE DERIVATIVES AS FGFR KINASE INHIBITORS” (BETA PHARMA, INC., priority 2020, published 2024).

Legend:
Assay in all cases: RBC HotSpot Kinase Assay (33P-ATP filter-binding)
Assay type in all cases: biochemical
Details in all cases: 10 μM ATP
[1] = target: FGFR3 (Homo sapiens (Human), UniProt P22607)
Method: (§1) Biochemical Assay. […] The reaction buffer was 20 mM HEPES (pH 7.5), 10 mM MgCl2, 1 mM EGTA, 0.02% Brij35, 0.02 mg/mL BSA, 0.1 mM Na3VO4, 2 mM DTT, 1% DMSO. The required cofactors are added individually to each kinase reaction. […] The substrate was Poly (Glu, Tyr) sodium salt and the concentration was 0.2 mg/mL (Sigma; cat. #P7244) where the Glu:Tyr (4:1) molecular weight was 5,000-20,000. […] Reactions were carried out at 10 μM ATP. The serial dilution was conducted by Integra Viaflo Assist in DMSO. The reaction procedure was conducted as follows: • 1) Prepare substrate in freshly prepared Reaction Buffer. • 2) MnCl2 (2 mM) was added as a co-factor listed as above. • 3) Deliver kinase into the substrate solution and gently mix. • 4) Deliver compounds in 100% DMSO into the kinase reaction mixture by Acoustic technology (Echo550; nanoliter range), incubate for 20 min at RT. • 5) Deliver 33P-ATP (specific activity 10 μCi/μL) into the reaction mixture to initiate the reaction. • 6) Incubate for 2 hours at RT. • 7) Detect radioactivity by the filter-binding method. • 8) Kinase activity data was expressed as the percent remaining kinase activity in the test sample compared to vehicle (DMSO) reactions.

[2] = target: FGFR4 (Homo sapiens (Human), UniProt P22455)
Sequence of FGFR4 (P22455 22-802): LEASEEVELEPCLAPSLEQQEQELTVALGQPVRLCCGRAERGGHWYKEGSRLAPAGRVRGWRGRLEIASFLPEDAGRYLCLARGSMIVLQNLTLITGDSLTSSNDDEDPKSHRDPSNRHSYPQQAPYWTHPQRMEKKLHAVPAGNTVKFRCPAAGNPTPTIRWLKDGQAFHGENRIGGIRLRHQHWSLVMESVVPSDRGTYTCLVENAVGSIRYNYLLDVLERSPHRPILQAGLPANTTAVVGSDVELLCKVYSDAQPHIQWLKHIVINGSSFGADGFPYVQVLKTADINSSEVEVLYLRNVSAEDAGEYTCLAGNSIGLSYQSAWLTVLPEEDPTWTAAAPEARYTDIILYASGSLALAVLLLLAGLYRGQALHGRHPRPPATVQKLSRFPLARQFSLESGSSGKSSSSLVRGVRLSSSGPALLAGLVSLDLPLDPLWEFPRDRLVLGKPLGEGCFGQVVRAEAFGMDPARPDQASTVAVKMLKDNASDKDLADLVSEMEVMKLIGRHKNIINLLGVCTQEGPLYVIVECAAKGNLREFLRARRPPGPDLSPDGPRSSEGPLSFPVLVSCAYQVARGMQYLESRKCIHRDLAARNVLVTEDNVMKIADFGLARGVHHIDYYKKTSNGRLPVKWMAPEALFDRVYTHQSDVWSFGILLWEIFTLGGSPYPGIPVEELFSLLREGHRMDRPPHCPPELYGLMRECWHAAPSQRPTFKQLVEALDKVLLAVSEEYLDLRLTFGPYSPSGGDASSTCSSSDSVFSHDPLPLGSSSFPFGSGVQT
Method: as §1

[3] = target: FGFR2 (Homo sapiens (Human), UniProt P21802)
Sequence of FGFR2 (P21802 22-821): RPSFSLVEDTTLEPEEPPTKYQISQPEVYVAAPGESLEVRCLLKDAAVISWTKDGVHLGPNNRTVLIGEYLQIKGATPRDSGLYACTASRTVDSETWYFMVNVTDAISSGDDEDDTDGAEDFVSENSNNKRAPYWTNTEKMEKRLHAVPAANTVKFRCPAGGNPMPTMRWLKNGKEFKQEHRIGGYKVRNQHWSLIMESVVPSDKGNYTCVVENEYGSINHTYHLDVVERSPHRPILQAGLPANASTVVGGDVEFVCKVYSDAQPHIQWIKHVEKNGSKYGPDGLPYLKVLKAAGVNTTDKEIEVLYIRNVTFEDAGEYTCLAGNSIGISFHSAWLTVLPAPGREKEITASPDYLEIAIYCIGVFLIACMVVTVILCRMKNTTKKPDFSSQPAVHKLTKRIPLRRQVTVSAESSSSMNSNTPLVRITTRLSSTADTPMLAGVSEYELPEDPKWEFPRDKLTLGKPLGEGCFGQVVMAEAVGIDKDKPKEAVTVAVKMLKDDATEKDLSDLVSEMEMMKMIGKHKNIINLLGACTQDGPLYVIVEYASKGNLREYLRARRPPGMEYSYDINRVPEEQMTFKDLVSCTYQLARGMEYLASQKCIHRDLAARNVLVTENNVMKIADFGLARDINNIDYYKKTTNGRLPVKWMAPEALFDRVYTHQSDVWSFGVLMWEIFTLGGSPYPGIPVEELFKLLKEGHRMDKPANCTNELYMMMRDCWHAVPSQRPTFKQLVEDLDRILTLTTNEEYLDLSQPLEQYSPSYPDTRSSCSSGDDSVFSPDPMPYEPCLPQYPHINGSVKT
Method: as §1

Sequence of FGFR3 (P22607 23-806): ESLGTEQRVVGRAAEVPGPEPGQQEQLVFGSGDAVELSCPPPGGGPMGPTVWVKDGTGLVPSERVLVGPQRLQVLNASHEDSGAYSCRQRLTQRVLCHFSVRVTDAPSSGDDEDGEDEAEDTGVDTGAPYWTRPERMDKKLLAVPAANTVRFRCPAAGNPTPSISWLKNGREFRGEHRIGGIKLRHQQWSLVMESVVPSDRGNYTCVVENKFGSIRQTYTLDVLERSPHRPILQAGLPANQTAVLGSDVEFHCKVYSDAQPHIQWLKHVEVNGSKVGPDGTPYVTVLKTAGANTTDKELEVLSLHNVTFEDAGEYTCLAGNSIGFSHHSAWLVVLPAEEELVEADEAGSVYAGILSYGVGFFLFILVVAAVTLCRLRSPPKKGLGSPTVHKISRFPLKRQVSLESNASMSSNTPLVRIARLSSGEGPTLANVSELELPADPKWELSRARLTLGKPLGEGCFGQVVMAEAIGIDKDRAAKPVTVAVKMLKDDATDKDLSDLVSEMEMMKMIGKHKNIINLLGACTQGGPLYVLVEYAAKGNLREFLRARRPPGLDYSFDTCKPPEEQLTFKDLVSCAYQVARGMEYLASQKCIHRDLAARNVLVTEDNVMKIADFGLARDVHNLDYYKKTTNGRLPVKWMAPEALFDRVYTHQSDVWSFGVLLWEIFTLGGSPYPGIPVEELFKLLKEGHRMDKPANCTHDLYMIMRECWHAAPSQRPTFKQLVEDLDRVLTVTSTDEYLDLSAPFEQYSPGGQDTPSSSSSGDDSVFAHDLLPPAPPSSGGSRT

- IC50 [1]: 7.6 nM
- IC50 [2]: 11 nM
- IC50 [3]: 4.3 nM
SMILES: COc1cc(OC)cc(N(CCNC(C)C)c2ccc3nnc(-c4cnn(C)c4)cc3c2)c1 [Example 1, N^1-(3,5-Dimethoxyphenyl)-N^2-isopropyl-N^1-(3-(1-methyl-1H-pyrazol-4-yl)cinnolin-6-yl)ethane-1,2-diamine]
